Drawing on ChEMBL document CHEMBL5465560, “Selectivity Literature for EUbOPEN Chemogenomic Library” (2024), this text covers % of control for six compounds.

Each structure is given as a SMILES string.

Assay [1] concerns the target T1, Muscle, skeletal receptor tyrosine-protein kinase (Homo sapiens) (UniProt O15146).
T1 sequence (whole entry): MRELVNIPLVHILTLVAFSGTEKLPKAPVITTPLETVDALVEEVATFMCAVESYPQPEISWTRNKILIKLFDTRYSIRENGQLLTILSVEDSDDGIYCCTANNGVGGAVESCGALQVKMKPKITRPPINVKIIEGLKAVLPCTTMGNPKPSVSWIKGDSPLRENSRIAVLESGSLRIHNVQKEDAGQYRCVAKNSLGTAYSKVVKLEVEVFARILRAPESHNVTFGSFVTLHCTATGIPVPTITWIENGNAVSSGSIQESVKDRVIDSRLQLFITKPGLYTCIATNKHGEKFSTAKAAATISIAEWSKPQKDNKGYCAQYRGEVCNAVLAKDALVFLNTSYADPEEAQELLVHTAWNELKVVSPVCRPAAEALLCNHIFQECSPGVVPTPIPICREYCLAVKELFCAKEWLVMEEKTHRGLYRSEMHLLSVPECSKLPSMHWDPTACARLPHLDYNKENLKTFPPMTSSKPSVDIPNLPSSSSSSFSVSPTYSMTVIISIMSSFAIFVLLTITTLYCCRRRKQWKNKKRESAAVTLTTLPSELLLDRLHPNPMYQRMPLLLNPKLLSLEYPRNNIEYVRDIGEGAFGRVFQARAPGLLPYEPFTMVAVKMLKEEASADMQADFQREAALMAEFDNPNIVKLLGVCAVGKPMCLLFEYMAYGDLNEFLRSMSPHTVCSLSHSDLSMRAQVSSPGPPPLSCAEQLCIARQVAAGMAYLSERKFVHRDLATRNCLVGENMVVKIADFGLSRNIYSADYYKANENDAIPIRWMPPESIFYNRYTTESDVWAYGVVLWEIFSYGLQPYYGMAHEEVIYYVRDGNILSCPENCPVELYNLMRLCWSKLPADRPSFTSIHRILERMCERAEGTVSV
As to the kind of experiment: Selectivity interaction (KinomeScan (DiscoverX)) EUB0001619a MUSK. The note with it: at 1 µM.

In assay [2] the target is G protein-coupled receptor kinase 4 (Homo sapiens) (UniProt P32298). The experiment in a line: Selectivity interaction (KinomeScan (DiscoverX)) EUB0000695a GRK4. The note with it: at 100 nM.
G protein-coupled receptor kinase 4 (Homo sapiens), sequence (P32298 whole entry, looked up): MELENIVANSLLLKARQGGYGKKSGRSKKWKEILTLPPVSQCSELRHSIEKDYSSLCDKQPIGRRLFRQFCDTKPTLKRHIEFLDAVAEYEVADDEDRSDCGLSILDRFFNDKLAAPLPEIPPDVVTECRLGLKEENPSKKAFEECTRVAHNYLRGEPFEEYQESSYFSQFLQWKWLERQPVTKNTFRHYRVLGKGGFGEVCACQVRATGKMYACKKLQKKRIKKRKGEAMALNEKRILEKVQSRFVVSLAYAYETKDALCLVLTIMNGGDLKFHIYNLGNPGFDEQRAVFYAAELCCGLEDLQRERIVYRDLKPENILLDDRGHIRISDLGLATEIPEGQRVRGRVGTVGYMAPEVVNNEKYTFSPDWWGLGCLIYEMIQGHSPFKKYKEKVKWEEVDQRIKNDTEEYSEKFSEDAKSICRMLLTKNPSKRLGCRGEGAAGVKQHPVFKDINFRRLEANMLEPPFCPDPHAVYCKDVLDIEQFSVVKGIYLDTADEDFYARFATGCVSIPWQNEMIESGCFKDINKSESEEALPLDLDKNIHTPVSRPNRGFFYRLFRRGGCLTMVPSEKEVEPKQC
The target of assay [3] is Phosphatidylinositol 3-kinase catalytic subunit type 3 (Homo sapiens, UniProt Q8NEB9). As to the kind of experiment: Selectivity interaction (KinomeScan (DiscoverX)) EUB0000695a PIK3C3. The note with it: at 100 nM.
Phosphatidylinositol 3-kinase catalytic subunit type 3, sequence (Q8NEB9 whole entry): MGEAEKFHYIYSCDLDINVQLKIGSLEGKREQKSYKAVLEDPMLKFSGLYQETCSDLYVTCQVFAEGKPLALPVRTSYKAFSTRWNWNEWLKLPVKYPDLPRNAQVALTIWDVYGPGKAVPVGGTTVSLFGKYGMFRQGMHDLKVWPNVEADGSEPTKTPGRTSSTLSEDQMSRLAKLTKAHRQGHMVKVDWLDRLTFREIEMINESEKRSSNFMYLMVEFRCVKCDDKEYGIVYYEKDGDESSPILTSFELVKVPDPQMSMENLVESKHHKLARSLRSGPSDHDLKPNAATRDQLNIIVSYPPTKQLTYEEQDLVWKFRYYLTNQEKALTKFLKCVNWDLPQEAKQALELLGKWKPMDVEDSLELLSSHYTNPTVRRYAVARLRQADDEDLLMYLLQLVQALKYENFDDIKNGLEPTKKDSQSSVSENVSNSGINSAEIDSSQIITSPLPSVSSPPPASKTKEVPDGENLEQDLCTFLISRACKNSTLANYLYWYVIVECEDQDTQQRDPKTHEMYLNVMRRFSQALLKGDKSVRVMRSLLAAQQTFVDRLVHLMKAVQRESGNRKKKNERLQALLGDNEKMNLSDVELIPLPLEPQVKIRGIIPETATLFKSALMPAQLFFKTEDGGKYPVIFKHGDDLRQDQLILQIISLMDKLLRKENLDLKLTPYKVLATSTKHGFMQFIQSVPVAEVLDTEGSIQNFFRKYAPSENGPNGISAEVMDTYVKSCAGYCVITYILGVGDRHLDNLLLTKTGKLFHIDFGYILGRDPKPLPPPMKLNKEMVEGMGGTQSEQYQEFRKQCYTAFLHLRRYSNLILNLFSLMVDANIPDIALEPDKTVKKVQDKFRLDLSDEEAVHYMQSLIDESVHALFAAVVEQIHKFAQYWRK
Assay [4] concerns the target T2, Mitogen-activated protein kinase kinase kinase kinase 3 (Homo sapiens) (UniProt Q8IVH8).
T2 sequence (whole entry): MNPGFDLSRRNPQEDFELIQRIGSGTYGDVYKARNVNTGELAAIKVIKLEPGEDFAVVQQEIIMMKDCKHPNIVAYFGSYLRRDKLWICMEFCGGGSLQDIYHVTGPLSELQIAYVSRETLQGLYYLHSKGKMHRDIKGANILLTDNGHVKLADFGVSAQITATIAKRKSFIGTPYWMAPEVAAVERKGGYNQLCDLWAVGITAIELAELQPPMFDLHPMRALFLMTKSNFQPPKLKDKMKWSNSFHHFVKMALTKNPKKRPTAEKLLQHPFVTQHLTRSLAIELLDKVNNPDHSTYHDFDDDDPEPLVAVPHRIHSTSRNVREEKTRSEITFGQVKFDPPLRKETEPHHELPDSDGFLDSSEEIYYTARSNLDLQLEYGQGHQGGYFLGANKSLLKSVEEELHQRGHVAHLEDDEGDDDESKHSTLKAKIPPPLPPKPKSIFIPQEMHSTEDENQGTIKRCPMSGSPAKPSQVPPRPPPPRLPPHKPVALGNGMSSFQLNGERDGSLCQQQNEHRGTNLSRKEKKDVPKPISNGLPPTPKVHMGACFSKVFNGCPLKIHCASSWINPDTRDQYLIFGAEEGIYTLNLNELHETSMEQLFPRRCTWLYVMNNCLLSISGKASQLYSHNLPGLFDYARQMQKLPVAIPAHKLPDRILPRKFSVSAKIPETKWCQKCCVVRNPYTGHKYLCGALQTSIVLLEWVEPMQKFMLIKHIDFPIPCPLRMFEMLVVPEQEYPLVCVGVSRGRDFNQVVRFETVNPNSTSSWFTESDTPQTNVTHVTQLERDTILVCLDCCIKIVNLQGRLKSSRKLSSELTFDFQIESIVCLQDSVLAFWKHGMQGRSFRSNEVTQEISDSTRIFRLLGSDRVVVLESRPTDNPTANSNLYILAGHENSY
The experiment in a line: Selectivity interaction (KinomeScan (DiscoverX)) EUB0000607a MAP4K3. The settings on record: at 10 µM.

In assay [5] the target is RAC-gamma serine/threonine-protein kinase (Homo sapiens, UniProt Q9Y243). The experiment in a line: Selectivity interaction (Ambit KINOMEscan and KiNATiv profiling in Jurkat cells) EUB0000090b AKT3. Format: cell-based. The note with it: at 1 µM.
RAC-gamma serine/threonine-protein kinase, sequence (Q9Y243 whole entry): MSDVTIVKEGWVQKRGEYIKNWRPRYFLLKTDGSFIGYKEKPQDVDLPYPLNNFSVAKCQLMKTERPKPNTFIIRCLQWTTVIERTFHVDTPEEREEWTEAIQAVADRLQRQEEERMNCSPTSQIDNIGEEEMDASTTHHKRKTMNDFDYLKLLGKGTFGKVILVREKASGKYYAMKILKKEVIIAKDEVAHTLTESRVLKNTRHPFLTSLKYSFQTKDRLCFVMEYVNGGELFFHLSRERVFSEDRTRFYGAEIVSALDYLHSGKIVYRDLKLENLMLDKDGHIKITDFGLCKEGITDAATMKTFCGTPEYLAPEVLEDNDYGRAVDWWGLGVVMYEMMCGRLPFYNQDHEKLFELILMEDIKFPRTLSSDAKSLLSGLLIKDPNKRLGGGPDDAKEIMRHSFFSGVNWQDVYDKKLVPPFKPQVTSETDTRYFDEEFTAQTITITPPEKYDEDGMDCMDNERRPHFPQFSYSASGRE
Assay [6] addresses T3, Serine/threonine-protein kinase D2 (Homo sapiens) (UniProt Q9BZL6).
T3 sequence (whole entry): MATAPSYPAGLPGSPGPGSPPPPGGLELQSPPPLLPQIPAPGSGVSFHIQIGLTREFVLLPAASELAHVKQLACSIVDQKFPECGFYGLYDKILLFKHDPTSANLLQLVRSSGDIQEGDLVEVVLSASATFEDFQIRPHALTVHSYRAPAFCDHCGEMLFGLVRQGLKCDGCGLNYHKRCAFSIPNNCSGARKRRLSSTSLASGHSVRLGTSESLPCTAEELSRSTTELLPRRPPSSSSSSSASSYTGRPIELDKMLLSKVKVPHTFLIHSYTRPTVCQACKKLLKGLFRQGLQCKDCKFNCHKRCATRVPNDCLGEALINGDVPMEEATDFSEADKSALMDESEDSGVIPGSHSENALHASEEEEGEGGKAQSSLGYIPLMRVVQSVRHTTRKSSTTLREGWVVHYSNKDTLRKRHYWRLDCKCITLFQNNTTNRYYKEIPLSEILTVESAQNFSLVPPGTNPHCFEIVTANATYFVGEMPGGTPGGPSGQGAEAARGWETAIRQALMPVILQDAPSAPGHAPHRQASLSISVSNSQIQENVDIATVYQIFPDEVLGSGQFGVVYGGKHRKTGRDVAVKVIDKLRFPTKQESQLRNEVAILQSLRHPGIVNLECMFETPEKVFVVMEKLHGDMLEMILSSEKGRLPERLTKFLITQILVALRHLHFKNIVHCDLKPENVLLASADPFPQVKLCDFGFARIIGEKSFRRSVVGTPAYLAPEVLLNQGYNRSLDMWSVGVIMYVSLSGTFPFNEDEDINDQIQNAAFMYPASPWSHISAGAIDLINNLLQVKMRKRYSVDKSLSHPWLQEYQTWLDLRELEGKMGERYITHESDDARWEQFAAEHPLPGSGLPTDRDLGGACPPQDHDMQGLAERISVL
The experiment in a line: Selectivity interaction (KinomeScan (DiscoverX)) EUB0001049a PRKD2. The settings on record: at 1 µM.

Assay [7] concerns the target Tyrosine-protein kinase Fer (Homo sapiens) (UniProt P16591). As to the kind of experiment: Selectivity interaction (KinomeScan (DiscoverX)) EUB0000618a FER. The settings on record: at 10 µM.
In assay [8] the target is Mitogen-activated protein kinase kinase kinase 1 (Homo sapiens, UniProt Q13233). The experiment in a line: Selectivity interaction (KinomeScan (DiscoverX)) EUB0000618a MAP3K1. The note with it: at 10 µM.
Mitogen-activated protein kinase kinase kinase 1, sequence (Q13233 whole entry): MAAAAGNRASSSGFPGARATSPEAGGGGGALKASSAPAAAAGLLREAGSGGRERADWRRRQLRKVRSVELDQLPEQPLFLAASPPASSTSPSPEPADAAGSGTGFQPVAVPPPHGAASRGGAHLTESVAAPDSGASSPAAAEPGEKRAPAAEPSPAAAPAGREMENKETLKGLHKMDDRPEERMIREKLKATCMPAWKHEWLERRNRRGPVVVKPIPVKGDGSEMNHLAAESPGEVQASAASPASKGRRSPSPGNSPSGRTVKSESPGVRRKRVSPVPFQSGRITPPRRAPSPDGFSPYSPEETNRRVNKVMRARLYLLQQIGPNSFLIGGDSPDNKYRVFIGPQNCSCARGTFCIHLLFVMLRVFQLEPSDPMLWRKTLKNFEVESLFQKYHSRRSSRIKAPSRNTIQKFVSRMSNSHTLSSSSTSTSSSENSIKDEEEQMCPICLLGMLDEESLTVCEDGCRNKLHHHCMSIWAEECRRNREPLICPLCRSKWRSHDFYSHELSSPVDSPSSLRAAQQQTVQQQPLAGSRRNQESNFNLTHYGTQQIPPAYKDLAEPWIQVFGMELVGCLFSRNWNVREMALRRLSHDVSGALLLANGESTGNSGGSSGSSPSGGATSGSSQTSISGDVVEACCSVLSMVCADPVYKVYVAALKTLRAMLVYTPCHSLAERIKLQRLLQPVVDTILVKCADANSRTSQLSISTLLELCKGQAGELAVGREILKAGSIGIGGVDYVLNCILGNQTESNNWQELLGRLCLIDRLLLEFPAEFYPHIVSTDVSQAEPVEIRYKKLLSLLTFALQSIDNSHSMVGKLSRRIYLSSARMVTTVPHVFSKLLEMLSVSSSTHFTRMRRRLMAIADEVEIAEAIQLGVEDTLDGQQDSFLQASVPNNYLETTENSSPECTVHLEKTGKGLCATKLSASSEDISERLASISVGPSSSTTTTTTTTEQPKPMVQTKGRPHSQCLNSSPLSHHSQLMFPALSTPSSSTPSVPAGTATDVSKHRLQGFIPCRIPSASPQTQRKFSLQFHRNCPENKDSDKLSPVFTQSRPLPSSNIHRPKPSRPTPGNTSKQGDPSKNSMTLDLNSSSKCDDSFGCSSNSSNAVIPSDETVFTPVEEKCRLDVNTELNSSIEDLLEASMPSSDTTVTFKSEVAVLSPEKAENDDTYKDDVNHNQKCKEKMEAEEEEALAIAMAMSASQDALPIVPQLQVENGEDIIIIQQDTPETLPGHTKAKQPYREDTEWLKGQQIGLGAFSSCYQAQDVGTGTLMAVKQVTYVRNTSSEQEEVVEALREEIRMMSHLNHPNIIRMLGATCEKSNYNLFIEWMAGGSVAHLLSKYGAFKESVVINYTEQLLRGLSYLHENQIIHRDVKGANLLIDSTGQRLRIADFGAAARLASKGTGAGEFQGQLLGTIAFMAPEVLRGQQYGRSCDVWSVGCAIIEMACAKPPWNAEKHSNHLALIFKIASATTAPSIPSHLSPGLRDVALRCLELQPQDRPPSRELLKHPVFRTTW

Tyrosine-protein kinase Fer (Homo sapiens), sequence (P16591 whole entry, looked up): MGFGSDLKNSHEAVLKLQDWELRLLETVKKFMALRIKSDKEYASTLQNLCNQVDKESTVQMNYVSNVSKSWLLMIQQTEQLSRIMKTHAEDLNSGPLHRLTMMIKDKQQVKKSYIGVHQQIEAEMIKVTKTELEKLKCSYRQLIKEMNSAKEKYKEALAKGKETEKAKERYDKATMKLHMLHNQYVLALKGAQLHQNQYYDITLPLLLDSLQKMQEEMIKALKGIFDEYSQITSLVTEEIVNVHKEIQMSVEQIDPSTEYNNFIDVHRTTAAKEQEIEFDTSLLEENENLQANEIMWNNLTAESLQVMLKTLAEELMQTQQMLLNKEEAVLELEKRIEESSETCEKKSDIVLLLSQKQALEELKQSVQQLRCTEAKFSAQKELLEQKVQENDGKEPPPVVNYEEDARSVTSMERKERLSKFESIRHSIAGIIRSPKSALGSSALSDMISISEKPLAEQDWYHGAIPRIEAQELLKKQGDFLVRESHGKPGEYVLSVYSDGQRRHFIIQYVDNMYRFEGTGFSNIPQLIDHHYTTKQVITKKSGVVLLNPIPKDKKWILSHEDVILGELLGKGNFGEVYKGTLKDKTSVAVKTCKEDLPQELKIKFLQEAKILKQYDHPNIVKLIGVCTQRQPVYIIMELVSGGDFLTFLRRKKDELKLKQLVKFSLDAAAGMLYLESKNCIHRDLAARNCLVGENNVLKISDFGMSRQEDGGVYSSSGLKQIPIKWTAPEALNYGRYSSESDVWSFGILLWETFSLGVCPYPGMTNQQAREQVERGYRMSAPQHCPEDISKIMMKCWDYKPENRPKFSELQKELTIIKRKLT

In assay [1], `N#Cc1cccc(-c2c[nH]c3ncnc(N4CCOCC4)c23)c1` came in with a % of control of 95%.
In the case of `Cc1cc(F)c(C(=O)Nc2cccc(-c3nncn3C(C)C)n2)cc1-n1cnc(C2CC2)c1`, the % of control in assay [2] is 100%; in assay [3] it was 88%.
As to `CNC(=O)Nc1ccc(-c2nc(N3CC4CCC(C3)O4)c3cnn(C4CCC5(CC4)OCCO5)c3n2)cc1`, the % of control in assay [4] was determined as 94%.
On to `CN(C)C/C=C/C(=O)Nc1ccc(C(=O)N2CCCC(Nc3ncc(Cl)c(-c4c[nH]c5ccccc45)n3)C2)cc1` (stereo not drawn), for which, in assay [5], the % of control stood at 96%.
The compound `COc1cc(Nc2nc(C)cc(-c3cnn4nc(OC)ccc34)n2)cc(C(F)(F)F)c1` yielded a % of control in assay [6] of 100%.
For the compound `O[C@H]1CC[C@H](Nc2ncc3nc(Nc4c(F)cc(F)cc4F)n([C@H]4CCOC4)c3n2)CC1`, the results for the % of control in assay [7] and in assay [8] were 100% and 91%, respectively.
